The text below walks through data of publication PMC12592502, “Unraveling the mechanisms behind the enhanced efficacy of β-lactam-based sideromycins” (Communications Biology, 2025).

One may read the Km as the concentration of substrate that gives half-maximal velocity. The term kcat denotes the maximal rate divided by the concentration of active sites. Broadly, the kcat/Km is the second-order rate constant that governs catalysis at low substrate concentration. In general, MIC refers to the lowest concentration found to suppress growth.

≈ marks a conversion by molar mass, not a printed value. Like-named read-outs stand apart in the source and are kept apart here.

One data set relates to E. coli PBP3. Further details: method as in PMID 29061741. The conditions noted are these: cited from earlier work.
The subject of data set [1] is CC1(C)S[C@@H]2[C@H](NC(=O)[C@H](N)c3ccccc3)C(=O)N2[C@H]1C(=O)O. In words: purified protein, by the assay type. As to conditions: other: Michaelis–Menten curves, n = 3, 25 °C, pH 7.0.
Data set [2] concerns O=C(Cc1cccs1)N[C@@H]1C(=O)N2C(C(=O)O)=C(/C=C/c3ccc([N+](=O)[O-])cc3[N+](=O)[O-])CS[C@H]12. Kind of data set: purified protein, by the assay type. The conditions noted are these: other: Michaelis–Menten curves, n = 3, 25 °C, pH 7.0.
Another data set has as its system E. coli MC4100. In words: MIC. As to conditions: MC4100, MHBCA. It counts as cell-based, Escherichia coli. The protocol: (§1) All bacterial strains (see description and sources Table S1) were stored at −80 °C, and grown on tryptone soya agar (TSA) at 35 °C. The iron-deprived (ID)-MHBCA (cation-adjusted Muller-Hinton Broth, Becton Dickinson, Mississauga, ON, Canada) medium was prepared as reported by refs. [21],[50]. Briefly, MHBCA was treated with 10% Chelex® 50-100 mesh (Sigma) and stirred for 6 h at room temperature. The resin was removed by filtration. Divalent Ca^2+ (CaCl2), Mg^2+ (MgCl2), and Zn^2+(ZnSO4), were then added in the iron-depleted medium at 22, 12, and 1 μg/ml respectively. Finally, the pH was adjusted to 7.3, and the medium was sterilized with a 0.2-μm filter. Regular MHBCA (i.e., not treated with Chelex®) was used to compare the inhibitory activity of conjugates in iron-sufficient conditions.
(§2) Minimal inhibitory concentrations (MICs) were performed using a broth microdilution technique according to the Clinical and Laboratory Standards Institute (CLSI) guidelines. MICs were determined in MHBCA and in ID-MHBCA. To check the impact of β-lactamases, MICs in the presence of a β-lactamase inhibitor were also determined. The inhibitor was homogenized at 2X the final concentration and added to the bacterial inoculum just before distributing cells into the wells containing the drug dilutions. The final concentration of each inhibitor was 4 μg/mL for clavulanic acid (tested against K. pneumoniae) and 200 μg/mL for 3-aminophenylboronic acid (tested against P. aeruginosa and A. baumannii).

For a further data set, the system named is E. coli lptD4213. In words: MIC, hyperpermeable mutant. The conditions noted are these: lptD4213, MHBCA (+). The class given is cell-based, Escherichia coli. The protocol: as §1, with “conditions. The resin used for Chelex treatment was always fresh and had never been regenerated, ensuring consistent iron removal.” for “conditions.”
as §2

In another data set the target is AmpC (PDC-5) (Pseudomonas aeruginosa, UniProt P24735, R79Q/T105A). Kind of data set: biochemical. The class given is biochemical, P. aeruginosa ATCC 27853. The conditions noted are these: n = 2. The protocol: The purification of AmpC from the culture supernatant obtained above was conducted as described in the Catwright and Waley protocol[52] using an Affi-gel 10 matrix (Bio-Rad, Hercules, CA, USA) loaded in a column (G-Bioscience, St-Louis, MO, USA). First, the resin was washed with cold deionized water. The resin was then collected and mixed with 20 mL of the 3-aminophenylboronic acid solution (1 M KHCO3 containing 2 g of 3-aminophenyl boronic acid and 2 g of sorbitol) at 4 °C for 1 h, and the pH was maintained at 8 with solid KHCO3. The mixture was loaded onto the column and washed with 10 column volumes of 1 M NaCl/0.5 M sorbitol (pH 7), followed by 10 column volumes of 0.5 M borate (pH 7), and then 10 column volumes of the loading buffer (20 mM triethanolamine HCl/0.5 M NaCl, pH 7). The sample was dialyzed in the loading buffer before being loaded onto the column. The column was washed with the loading buffer until no absorbance was measured at OD280. AmpC was eluted in fractions of 1 mL with 0.5 M borate/0.5 M NaCl pH 7. […] The purity was visualized on a 10% bis-acrylamide gel. Only pure fractions showing a single band at 40 kDa were pooled together and then dialyzed at 4 °C in a KP buffer 0.05 M pH 7 (see Fig. S2). The protein concentration was determined with a Bradford protein reagent (Bio-Rad).
(§3) Enzyme concentrations were 20 nM for AmpC and SHV-1, and 50 nM for OXA-98. Quartz cuvette (FireflySci Inc., Northport, NY) with 1 cm length path and 2 mm inside width was used with an Ultrospec 2100 Pro (Biochrom, Harvard Bioscience Inc., USA) to acquire the kinetic measures. […] The following extinction coefficients (Δε) and wavelengths (λ) were used:
(§4) The steady-state parameters (Km and Kcat) were determined by plotting the initial velocity against substrate concentrations (Michaelis–Menten curve). The Kcat was measured using the Vmax (μM/sec) divided by the total enzyme concentration and the catalytic efficiency was further calculated (Kcat/Km). SHV-1 parameters were determined with three Michaelis–Menten curves of at least seven substrate concentrations, while OXA-98 and AmpC were duplicates of curves of at least seven substrate concentrations. […] Initial velocities were measured at room temperature (25 °C). The Vmax and Km were calculated using least squares fit regression in GraphPad version 10.2.2. Ki was measured using a derivative of IC50 with an adaptation of the Cheng–Prusoff equation[55]. […] The corrected Ki was calculated using this formula: Kicorrected=Ki(observed)/1+S/KmNCF

The test system of data set [3] is P. aeruginosa 1625 ΔmexAB-oprM, ΔmexEF-oprN. In words: MIC, efflux pump mutant. It counts as cell-based, Pseudomonas aeruginosa. As to conditions: Pseudomonas aeruginosa. The protocol: as §2
Data set [4] has as its system P. aeruginosa 2302 MexAB, MexCD, MexEF upregulated. In words: MIC, efflux pump overexpressing strain. The class given is cell-based, Pseudomonas aeruginosa. The conditions noted are these: Pseudomonas aeruginosa. The protocol:
as §2

In data set [5] the test system is CC1(C)S[C@@H]2[C@H](NC(=O)[C@H](N)c3ccccc3)C(=O)N2[C@H]1C(=O)O. Kind of data set: purified protein, by the assay type. The class given is biochemical, A. baumannii ATCC 19606. The conditions noted are these: other: 20 mM NaHCO3 added, NH = no hydrolysis detected, pH 7.0. As for the experimental part: as §3, §4
Data set [6] concerns O=C(Cc1cccs1)N[C@@H]1C(=O)N2C(C(=O)O)=C(/C=C/c3ccc([N+](=O)[O-])cc3[N+](=O)[O-])CS[C@H]12. Kind of data set: purified protein, by the assay type. It counts as biochemical, A. baumannii ATCC 19606. The conditions noted are these: other: 20 mM NaHCO3 added, NH = no hydrolysis detected, pH 7.0. As for the experimental part:
as §3, §4

A further data set deals with P. aeruginosa ATCC 27853. In words: MIC, broth microdilution (CLSI). It counts as cell-based, Pseudomonas aeruginosa. The conditions noted are these: MHBCA; for MIC in combination with PAβN (control antibiotics): + 25 µg/mL PAβN. The protocol:
as §1, §2
(In general: Broth dilution looks for growth in wells or tubes with falling amounts of substance.)

The test system of another data set is A. baumannii ATCC 19606. In words: MIC, broth microdilution (CLSI). It counts as cell-based, Acinetobacter baumannii. As to conditions: MHBCA. As for the experimental part:
as §1, with “conditions. The resin used for Chelex treatment was always fresh and had never been regenerated, ensuring consistent iron removal.” for “conditions.”
as §2

A further data set concerns E. coli ΔacrAB. In words: MIC, efflux pump mutant. The class given is cell-based, Escherichia coli. The protocol:
as §2

AmpC (PDC-5), sequence (P24735 27-397 R79Q/T105A): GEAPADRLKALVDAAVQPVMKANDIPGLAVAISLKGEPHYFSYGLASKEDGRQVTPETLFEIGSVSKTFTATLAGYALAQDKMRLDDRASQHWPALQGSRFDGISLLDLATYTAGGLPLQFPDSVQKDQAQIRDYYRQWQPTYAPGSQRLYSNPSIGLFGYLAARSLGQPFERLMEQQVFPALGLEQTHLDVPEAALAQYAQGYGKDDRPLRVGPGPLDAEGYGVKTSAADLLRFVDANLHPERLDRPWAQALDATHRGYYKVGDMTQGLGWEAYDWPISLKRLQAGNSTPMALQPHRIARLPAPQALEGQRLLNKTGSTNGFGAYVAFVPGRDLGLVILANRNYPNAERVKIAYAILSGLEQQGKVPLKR

With `CC(C)(O/N=C(\C(=O)N[C@@H]1C(=O)N2C(C(=O)[O-])=C(C[N+]3(CCNC(=O)c4ccc(O)c(O)c4Cl)CCCC3)CS[C@H]12)c1csc(N)n1)C(=O)O` [cefiderocol], the “decrease in the IC50 for E. coli PBP3 compared to ceftazidime” value with E. coli PBP3 is on record as 11 fold.
Turning to SHV-1 (Klebsiella pneumoniae), in data set [1], the Michaelis constant (Km) was 164 ± 4 µM, the catalytic constant (kcat) was found to be 1565 ± 42 s⁻¹ and the kcat/Km turned out to be 9.5e+06 ± 300000 M⁻¹ s⁻¹. In data set [2], the Michaelis constant (Km) was 25 ± 3 µM, the turnover number (kcat) was 247 ± 48 s⁻¹ and the kcat/Km amounted to 9.8e+06 ± 2.3e+06 M⁻¹ s⁻¹.
As for `CN[C@H](CC(C)C)C(=O)N[C@H]1C(=O)N[C@@H](CC(N)=O)C(=O)N[C@H]2C(=O)N[C@H]3C(=O)N[C@H](C(=O)N[C@H](C(=O)O)c4cc(O)cc(O)c4-c4cc3ccc4O)[C@H](O)c3ccc(c(Cl)c3)Oc3cc2cc(c3O[C@@H]2O[C@H](CO)[C@@H](O)[C@H](O)[C@H]2O[C@H]2C[C@](C)(N)[C@H](O)[C@H](C)O2)Oc2ccc(cc2Cl)[C@H]1O` [VAN, vancomycin, reference compound], the “MIC (control antibiotics)” value against E. coli MC4100 (without PAβN) is over 128 µg/mL. In the data set on E. coli lptD4213, the “MIC (control antibiotic)” value came to 0.5 µg/mL (≈ 0.345 µM).
For the compound `O=C(Cc1cccs1)N[C@@H]1C(=O)N2C(C(=O)O)=C(/C=C/c3ccc([N+](=O)[O-])cc3[N+](=O)[O-])CS[C@H]12` [NCF, nitrocefin], the “AmpC (PDC-5) Vmax” value at AmpC (PDC-5) worked out at 121 ± 3 µmol·mg/min. At AmpC (PDC-5) (read-out: AmpC (PDC-5) Km, Michaelis–Menten curves), the Michaelis constant (Km) was found to be 103 ± 4 µM.
In the case of `C[C@H]1COc2c(N3CCN(C)CC3)c(F)cc3c(=O)c(C(=O)O)cn1c23` [LVX, levofloxacin], the minimal inhibitory concentration (MIC) in data set [3] is at most 0.06 µM; in data set [3] (read-out: MIC (control drug)) it was at most 0.06 µg/mL; in data set [4], 16 µM; in [4] (read-out: MIC (control drug)), 16 µg/mL.
“OXA-98 (Acinetobacter baumannii ATCC 19606 = CIP 70.34 = JCM 6841)”: in data set [5], the Michaelis-Menten constant (Km) was 490 ± 12 µM, the catalytic constant (kcat) was 22 ± 1 s⁻¹ and the kcat/Km is 40000 ± 0 M⁻¹ s⁻¹. In [6], the Michaelis constant (Km) came to 343 ± 10 µM, the kcat stood at 3.5 ± 0.2 s⁻¹ and the catalytic efficiency (kcat/Km) amounted to 10000 ± 0 M⁻¹ s⁻¹.
Consider `CO[C@H]1/C=C/O[C@@]2(C)Oc3c(C)c(O)c4c(O)c(c(/C=N/N5CCN(C)CC5)c(O)c4c3C2=O)NC(=O)/C(C)=C\C=C\[C@H](C)[C@H](O)[C@@H](C)[C@@H](O)[C@@H](C)[C@H](OC(C)=O)[C@@H]1C` [RIF, rifampicin, reference compound], for which the “MIC in combination with PAβN (control antibiotics)” value in the data set with P. aeruginosa ATCC 27853 is on record as 2 µg/mL; in the data set with A. baumannii ATCC 19606 (+ 25 µg/mL PAβN), at most 0.012 µg/mL. Besides, the “MIC (control antibiotics)” value against P. aeruginosa ATCC 27853 (without PAβN) and with A. baumannii ATCC 19606 (without PAβN) was 16 µg/mL (≈ 19.4 µM) each time.
Consider `CC[C@H]1OC(=O)[C@H](C)[C@@H](O[C@H]2C[C@@](C)(OC)[C@@H](O)[C@H](C)O2)[C@H](C)[C@@H](O[C@@H]2O[C@H](C)C[C@H](N(C)C)[C@H]2O)[C@](C)(O)C[C@@H](C)C(=O)[C@H](C)[C@@H](O)[C@]1(C)O` [ERY, erythromycin], for which the “MIC in combination with PAβN (control antibiotics)” value is given as 32 µg/mL with P. aeruginosa ATCC 27853 and 16 µg/mL in the data set on E. coli MC4100 (+ 25 µg/mL PAβN). In addition, the lowest concentration to inhibit growth against E. coli ΔacrAB (Escherichia coli) (MIC) was 4 µM (≈ 2.94 µg/mL). In the data set with E. coli ΔacrAB (deletion of acrAB), the “MIC (control antibiotic)” value was found to be 4 µg/mL (≈ 5.45 µM). The “reduction of MIC by deletion of acrAB” value in the data set with E. coli ΔacrAB (versus parent E. coli) is listed as 32 fold.
